# Measurements from patent US12516056B2, “Compounds for inhibition of janus kinase 1” (MANKIND PHARMA LTD., priority 2019, dated 2026).
# Counter-ions that a name gives are not always drawn. Like-named read-outs stand apart in the source and are kept apart here.
# Columns and labels:
# Recombinant JAK1 = molecular target: T1, Recombinant JAK1 (Homo sapiens, UniProt P23458); experiment: JAK biochemical assay (LANCE Ultra TR-FRET), JAK1; conditions: recombinant JAK1, TR-FRET; read-out: Biochemical Assay (μM) JAK1
# T1 construct: purchased Carna Biosciences
# T1 sequence (P23458 whole entry): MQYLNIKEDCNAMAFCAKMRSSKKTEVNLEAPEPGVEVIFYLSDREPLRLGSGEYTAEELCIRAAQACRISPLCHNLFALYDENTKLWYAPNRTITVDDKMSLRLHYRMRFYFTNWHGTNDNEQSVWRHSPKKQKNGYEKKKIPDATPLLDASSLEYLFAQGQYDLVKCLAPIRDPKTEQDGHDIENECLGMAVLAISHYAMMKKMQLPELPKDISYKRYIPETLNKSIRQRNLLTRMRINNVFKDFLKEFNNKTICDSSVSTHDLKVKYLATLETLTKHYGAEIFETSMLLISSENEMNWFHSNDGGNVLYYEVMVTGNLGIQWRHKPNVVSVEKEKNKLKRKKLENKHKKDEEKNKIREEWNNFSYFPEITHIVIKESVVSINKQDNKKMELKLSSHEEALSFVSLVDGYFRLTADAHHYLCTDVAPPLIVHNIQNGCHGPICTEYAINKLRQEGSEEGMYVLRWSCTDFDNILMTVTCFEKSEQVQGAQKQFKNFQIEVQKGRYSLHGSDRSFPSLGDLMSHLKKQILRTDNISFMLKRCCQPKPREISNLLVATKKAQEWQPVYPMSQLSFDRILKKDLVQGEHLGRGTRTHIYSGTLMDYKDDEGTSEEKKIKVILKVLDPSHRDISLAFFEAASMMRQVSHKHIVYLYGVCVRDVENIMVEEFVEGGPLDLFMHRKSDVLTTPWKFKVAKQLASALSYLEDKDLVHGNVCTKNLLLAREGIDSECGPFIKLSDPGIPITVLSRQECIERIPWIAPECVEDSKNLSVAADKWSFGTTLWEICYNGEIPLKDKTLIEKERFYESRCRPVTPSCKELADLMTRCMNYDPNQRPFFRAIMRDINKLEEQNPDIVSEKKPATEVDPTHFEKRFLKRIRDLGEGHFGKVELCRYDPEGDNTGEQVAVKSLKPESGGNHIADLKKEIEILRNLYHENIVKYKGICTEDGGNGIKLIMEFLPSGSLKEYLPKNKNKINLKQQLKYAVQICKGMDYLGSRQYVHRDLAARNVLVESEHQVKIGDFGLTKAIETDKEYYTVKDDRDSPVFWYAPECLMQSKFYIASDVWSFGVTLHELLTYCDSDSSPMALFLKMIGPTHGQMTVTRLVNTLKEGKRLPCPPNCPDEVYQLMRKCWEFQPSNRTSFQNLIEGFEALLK
# Outline: (§1)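 % inhibition relative to vehicle was derived from TR-FRET signal proportional to ULight-substrate phosphorylation. Reactions used recombinant kinase in HEPES pH 7.5 buffer containing EGTA, MgCl2, DTT and Tween-20.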
# Recombinant JAK2 = molecular target: T2, Recombinant JAK2 (Homo sapiens, UniProt O60674); experiment: JAK biochemical assay (LANCE Ultra TR-FRET), JAK2; conditions: recombinant JAK2, TR-FRET; read-out: Biochemical Assay (μM) JAK2
# T2 construct: purchased Carna Biosciences
# T2 sequence (O60674 whole entry): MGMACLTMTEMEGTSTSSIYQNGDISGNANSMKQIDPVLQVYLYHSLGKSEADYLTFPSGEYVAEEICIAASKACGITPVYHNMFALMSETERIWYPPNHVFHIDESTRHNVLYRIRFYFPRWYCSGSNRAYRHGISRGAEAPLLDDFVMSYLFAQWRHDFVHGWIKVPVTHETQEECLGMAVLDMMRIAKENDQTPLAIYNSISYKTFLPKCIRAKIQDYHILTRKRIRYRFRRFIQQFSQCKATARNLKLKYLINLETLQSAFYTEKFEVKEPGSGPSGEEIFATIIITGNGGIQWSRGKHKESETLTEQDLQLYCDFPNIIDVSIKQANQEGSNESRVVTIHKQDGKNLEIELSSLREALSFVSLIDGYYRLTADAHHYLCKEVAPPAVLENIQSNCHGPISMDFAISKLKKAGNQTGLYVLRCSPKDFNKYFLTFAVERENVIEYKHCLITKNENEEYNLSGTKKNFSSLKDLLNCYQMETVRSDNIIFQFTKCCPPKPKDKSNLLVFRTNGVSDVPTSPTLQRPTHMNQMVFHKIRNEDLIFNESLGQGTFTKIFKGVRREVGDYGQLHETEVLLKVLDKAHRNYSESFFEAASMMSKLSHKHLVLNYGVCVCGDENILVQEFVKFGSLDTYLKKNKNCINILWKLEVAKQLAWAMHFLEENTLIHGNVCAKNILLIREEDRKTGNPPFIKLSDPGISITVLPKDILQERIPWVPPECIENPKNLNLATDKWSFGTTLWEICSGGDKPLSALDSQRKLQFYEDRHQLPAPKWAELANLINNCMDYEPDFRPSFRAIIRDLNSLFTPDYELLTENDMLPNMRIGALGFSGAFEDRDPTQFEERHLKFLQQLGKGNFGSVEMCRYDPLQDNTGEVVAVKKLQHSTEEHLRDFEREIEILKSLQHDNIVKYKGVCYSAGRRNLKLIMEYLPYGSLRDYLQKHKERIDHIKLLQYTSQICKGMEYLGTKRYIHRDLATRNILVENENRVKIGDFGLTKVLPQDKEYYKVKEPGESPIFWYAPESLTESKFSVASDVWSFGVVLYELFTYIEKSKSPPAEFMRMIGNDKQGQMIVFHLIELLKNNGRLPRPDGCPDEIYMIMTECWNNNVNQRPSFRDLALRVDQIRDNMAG
# Outline: as §1
# [1] = system: STAT5 phosphorylation by GMCSF in TF-1 cells; experiment: JAK cellular assay: STAT5 phosphorylation by GMCSF in TF-1 cells (HTRF); format: cell-based; conditions: TF-1 cells, GMCSF 5 ng/ml, pSTAT5 HTRF, read-out: Cell Based Assay (μM) TF-1/GMCSF/pSTAT5
# Procedure: (§2) TF-1 cells were starved overnight in OptiMEM medium with 0.5% charcoal stripped fetal bovine serum, 0.1 mM nonessential amino acids (NEAA), 1 mM sodium pyruvate and without phenol red in CO2 incubator maintained at 37° c. Next day, cells were resuspended in RPMI without phenol red and dispensed into a 96 well plate at a final cell density of 1,20,000 cells per well. Compounds were diluted in DMSO and added to cells and incubated for 30 minutes in CO2 incubator maintained at 37° c. Final DMSO concentration in cell based assay was 0.2%. Human recombinant cytokines, IL-6 (30 ng/ml) and GMCSF (5 ng/ml) were added to the plate containing cells along with compound and incubated for 20 minutes with gentle tapping at every 5 minutes once. Compound mediated effects on STAT3 and STAT5 phosphorylation was measured in the lysates prepared by using CISBIO pSTAT3 and pSTAT5 detection kits by HTRF method. Background signal obtained from cells which were not activated with cytokines, was subtracted from vehicle controls and compound treated wells.
# [2] = system: STAT3 phosphorylation by IL-6 in TF-1 cells; experiment: JAK cellular assay: STAT3 phosphorylation by IL-6 in TF-1 cells (HTRF); format: cell-based; conditions: IL-6 30 ng/ml, pSTAT3 HTRF, read-out: Cell Based Assay (μM) TF-1/IL-6/pSTAT3
# Procedure: as §2
# Recombinant TYK2 = molecular target: T3, Recombinant TYK2 (Homo sapiens, UniProt P29597); experiment: JAK biochemical assay (LANCE Ultra TR-FRET), TYK2; conditions: recombinant TYK2, TR-FRET; read-out: Biochemical Assay (μM) TYK2
# T3 construct: purchased Carna Biosciences
# T3 sequence (P29597 whole entry): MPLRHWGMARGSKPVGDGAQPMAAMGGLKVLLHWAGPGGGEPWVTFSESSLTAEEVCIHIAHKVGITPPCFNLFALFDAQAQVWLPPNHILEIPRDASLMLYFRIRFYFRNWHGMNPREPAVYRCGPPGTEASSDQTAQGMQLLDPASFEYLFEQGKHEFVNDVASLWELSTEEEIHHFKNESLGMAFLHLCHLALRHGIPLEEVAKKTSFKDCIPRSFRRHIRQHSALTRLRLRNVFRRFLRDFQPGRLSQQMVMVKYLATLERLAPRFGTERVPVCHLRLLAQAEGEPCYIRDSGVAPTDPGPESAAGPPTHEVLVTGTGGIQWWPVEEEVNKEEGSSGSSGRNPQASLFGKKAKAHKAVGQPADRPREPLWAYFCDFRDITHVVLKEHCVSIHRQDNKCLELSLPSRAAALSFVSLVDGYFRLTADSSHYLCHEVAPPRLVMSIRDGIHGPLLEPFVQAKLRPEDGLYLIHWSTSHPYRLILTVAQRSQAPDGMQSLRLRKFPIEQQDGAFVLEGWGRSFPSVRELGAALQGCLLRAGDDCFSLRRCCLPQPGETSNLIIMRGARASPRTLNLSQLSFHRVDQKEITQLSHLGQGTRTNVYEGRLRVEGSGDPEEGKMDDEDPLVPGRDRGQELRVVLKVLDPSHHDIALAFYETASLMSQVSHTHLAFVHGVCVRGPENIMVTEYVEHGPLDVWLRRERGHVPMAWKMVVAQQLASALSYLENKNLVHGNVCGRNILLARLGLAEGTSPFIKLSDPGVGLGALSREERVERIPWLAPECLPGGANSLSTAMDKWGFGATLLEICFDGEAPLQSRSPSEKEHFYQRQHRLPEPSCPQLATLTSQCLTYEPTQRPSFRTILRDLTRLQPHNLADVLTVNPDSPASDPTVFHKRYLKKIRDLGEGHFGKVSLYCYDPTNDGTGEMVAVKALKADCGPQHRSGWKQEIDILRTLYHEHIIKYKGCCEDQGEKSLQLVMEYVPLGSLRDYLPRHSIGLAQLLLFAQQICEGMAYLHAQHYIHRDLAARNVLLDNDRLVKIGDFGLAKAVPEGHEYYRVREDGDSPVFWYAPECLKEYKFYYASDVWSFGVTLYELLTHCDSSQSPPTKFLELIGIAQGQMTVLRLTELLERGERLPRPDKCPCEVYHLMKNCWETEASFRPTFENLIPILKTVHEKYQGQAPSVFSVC
# Outline: as §1
# Recombinant JAK3 = molecular target: T4, Recombinant JAK3 (Homo sapiens, UniProt P52333); experiment: JAK biochemical assay (LANCE Ultra TR-FRET), JAK3; conditions: recombinant JAK3, TR-FRET; read-out: Biochemical Assay (μM) JAK3
# T4 construct: purchased Carna Biosciences
# T4 sequence (P52333 1-1124): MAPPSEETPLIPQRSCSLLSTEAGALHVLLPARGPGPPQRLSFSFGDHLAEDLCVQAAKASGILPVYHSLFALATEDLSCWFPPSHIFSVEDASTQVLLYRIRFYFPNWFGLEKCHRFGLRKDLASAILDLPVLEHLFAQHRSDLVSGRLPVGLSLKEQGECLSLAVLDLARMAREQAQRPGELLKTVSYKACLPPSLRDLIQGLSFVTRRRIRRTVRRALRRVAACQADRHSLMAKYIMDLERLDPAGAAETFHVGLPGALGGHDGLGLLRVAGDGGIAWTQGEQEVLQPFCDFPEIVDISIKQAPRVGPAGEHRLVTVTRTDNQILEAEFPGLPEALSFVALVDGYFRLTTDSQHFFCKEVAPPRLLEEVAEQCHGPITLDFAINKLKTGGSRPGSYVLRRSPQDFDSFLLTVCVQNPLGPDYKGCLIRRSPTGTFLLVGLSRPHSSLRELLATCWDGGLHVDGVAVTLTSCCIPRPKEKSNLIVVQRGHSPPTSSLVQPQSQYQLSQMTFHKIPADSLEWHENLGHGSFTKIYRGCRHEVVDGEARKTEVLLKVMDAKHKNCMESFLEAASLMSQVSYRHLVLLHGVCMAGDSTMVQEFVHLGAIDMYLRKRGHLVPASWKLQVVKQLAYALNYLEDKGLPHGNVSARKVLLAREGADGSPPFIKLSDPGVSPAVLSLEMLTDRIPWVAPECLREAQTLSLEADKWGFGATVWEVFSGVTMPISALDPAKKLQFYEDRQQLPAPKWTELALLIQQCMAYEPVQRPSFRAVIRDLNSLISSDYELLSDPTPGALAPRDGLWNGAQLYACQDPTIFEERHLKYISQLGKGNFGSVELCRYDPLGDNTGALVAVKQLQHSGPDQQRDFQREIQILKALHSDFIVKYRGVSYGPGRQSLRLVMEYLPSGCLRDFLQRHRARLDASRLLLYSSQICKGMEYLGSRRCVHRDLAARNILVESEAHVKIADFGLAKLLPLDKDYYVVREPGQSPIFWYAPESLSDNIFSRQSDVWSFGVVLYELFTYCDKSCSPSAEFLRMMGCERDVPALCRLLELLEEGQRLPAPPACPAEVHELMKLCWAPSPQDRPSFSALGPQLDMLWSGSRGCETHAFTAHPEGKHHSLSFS
# Outline: as §1
SMILES,IC50 (Recombinant JAK1) [µM],IC50 (Recombinant JAK2) [µM],IC50 [1] [µM],IC50 ([2]; TF-1 cells) [µM],IC50 (Recombinant TYK2) [µM],IC50 (Recombinant JAK3) [µM],IC50 ([1]; Homo sapiens) [µM],"IC50 ([2]; Homo sapiens, TF-1, TF-1 cells) [µM]"
"CC(CC#N)NC(=O)n1cc(-c2ccnc3[nH]c(=O)[nH]c23)cn1 (stereo not drawn) [Example 1052, N-(1-cyanopropan-2-yl)-4-(2,3-dihydro-2-oxo-1H-imidazo[4,5-b]pyridin-7-yl)-1H-pyrazole-1-carboxamide]",< 0.5,< 0.5,> 10,> 10,< 0.5,> 0.5,–,–
"N#CCc1cccc(-n2cc(-c3ccnc4[nH]cnc34)cn2)n1 [Example 1117, 2-(6-(4-(3H-imidazo[4,5-b]pyridin-7-yl)-1H-pyrazol-1-yl)pyridin-2-yl)acetonitrile]",–,–,–,–,–,–,> 10,> 1
"CC(NC(=O)n1cc(-c2ccnc3[nH]c(=O)[nH]c23)cn1)C(=O)N1CC(C#N)C1 (stereo not drawn) [Example 1058, N-(1-(3-cyanoazetidin-1-yl)-1-oxopropan-2-yl)-4-(2-oxo-2,3-dihydro-1H-imidazo[4,5-b]pyridin-7-yl)-1H-pyrazole-1-carboxamide]",> 1,> 1,–,–,> 10,> 10,> 10,> 10
"CCN1CCC(C(O)(c2ccc(-n3cc(-c4ccnc5[nH]cnc45)cn3)nc2)C(F)(F)F)CC1 (stereo not drawn) [Example 1221, 1-(6-(4-(3H-imidazo[4,5-b]pyridin-7-yl)-1H-pyrazol-1-yl)pyridin-3-yl)-1-(1-ethylpiperidin-4-yl)-2,2,2-trifluoroethanol]",< 0.1,< 0.1,–,–,> 0.1,< 0.1,> 1,> 0.75
"FC(F)(F)C(OCCNC1CC1)c1ccc(-n2cc(-c3ccnc4[nH]cnc34)cn2)nc1 (stereo not drawn) [Example 1197, N-(2-(1-(6-(4-(3H-imidazo[4,5-b]pyridin-7-yl)-1H-pyrazol-1-yl)pyridin-3-yl)-2,2,2-trifluoroethoxy)ethyl)cyclopropanamine]",< 0.1,< 0.1,–,–,> 0.5,< 0.1,> 1,> 0.3
"CS(=O)(=O)CCC(C#N)NC(=O)n1cc(-c2ccnc3[nH]cnc23)cn1 (stereo not drawn) [Example 1072, N-(1-cyano-3-(methylsulfonyl)propyl)-4-(3H-imidazo[4,5-b]pyridin-7-yl)-1H-pyrazole-1-carboxamide]",> 0.5,> 0.5,–,–,–,> 0.5,> 10,> 10
"CC(CC#N)NC(=O)n1cc(-c2ccnc3[nH]c(=O)[nH]c23)cn1 (stereo not drawn) [Example 1053, N-(1-cyanopropan-2-yl)-4-(2,3-dihydro-2-oxo-1H-imidazo[4,5-b]pyridin-7-yl)-1H-pyrazole-1-carboxamide]",< 1,< 1,> 10,> 10,> 1,–,–,–
"N#CC(c1ccc(-n2cc(-c3ccnc4[nH]cnc34)cn2)nc1)N1CCOCC1 (stereo not drawn) [Example 1112, 2-(6-(4-(3H-imidazo[4,5-b]pyridin-7-yl)-1H-pyrazol-1-yl)pyridin-3-yl)-2-morpholinoacetonitrile]",–,> 0.5,–,–,> 1,> 1,> 10,10
"FC(F)(F)Cc1ccc(-n2cc(-c3ccnc4[nH]cnc34)cn2)nc1 [Example 1084, 7-(1-(5-(2,2,2-trifluoroethyl)pyridin-2-yl)-1H-pyrazol-4-yl)-3H-imidazo[4,5-b]pyridine]",–,–,–,–,–,–,> 10,> 1
"CN1CCN(CC(c2ccc(-n3cc(-c4ccnc5[nH]cnc45)cn3)nc2)C(F)(F)F)CC1 (stereo not drawn) [Example 1222, 7-(1-(5-(1,1,1-trifluoro-3-(4-methylpiperazin-1-yl)propan-2-yl)pyridin-2-yl)-1H-pyrazol-4-yl)-3H-imidazo[4,5-b]pyridine]",–,–,–,–,–,–,> 1,> 0.8
"CC(N)CCC(c1ccc(-n2cc(-c3ccnc4[nH]cnc34)cn2)nc1)C(F)(F)F (stereo not drawn) [Example 1224, 5-(6-(4-(3H-imidazo[4,5-b]pyridin-7-yl)-1H-pyrazol-1-yl)pyridin-3-yl)-6,6,6-trifluorohexan-2-amine, TFA salt]",–,–,–,–,> 0.1,0.001,> 1,> 0.75
"OC(c1ccc(-n2cc(-c3ccnc4[nH]cnc34)cn2)nc1)(C1CCOCC1)C(F)(F)F (stereo not drawn) [Example 1134, 1-(6-(4-(3H-imidazo[4,5-b]pyridin-7-yl)-1H-pyrazol-1-yl)pyridin-3-yl)-2,2,2-trifluoro-1-(tetrahydro-2H-pyran-4-yl)ethanol]",< 0.1,–,–,–,> 1,< 0.1,> 10,> 1
"CN(C)C(=O)CC(c1ccc(-n2cc(-c3ccnc4[nH]cnc34)cn2)nc1)C(F)(F)F (stereo not drawn) [Example 1144, 3-(6-(4-(3H-imidazo[4,5-b]pyridin-7-yl)-1H-pyrazol-1-yl)pyridin-3-yl)-4,4,4-trifluoro-N,N-dimethylbutanamide]",–,–,–,–,> 1,> 0.1,> 10,> 1
"N#CCCC1CCN(C(=O)n2cc(-c3ccnc4[nH]c(=O)[nH]c34)cn2)C1 (stereo not drawn) [Example 1061, 3-(1-(4-(2-oxo-2,3-dihydro-1H-imidazo[4,5-b]pyridin-7-yl)-1H-pyrazole-1-carbonyl)pyrrolidin-3-yl)propanenitrile]",> 1,–,–,–,> 1,> 1,> 10,> 10
"CC1(C)CN(C(=O)n2cc(-c3ccnc4[nH]c(=O)[nH]c34)cn2)C1 [Example 1037, 7-(1-(3,3-dimethylazetidine-1-carbonyl)-1H-pyrazol-4-yl)-1,3-dihydro-2H-imidazo[4,5-b]pyridin-2-one]",> 0.5,> 1,–,–,> 0.5,> 1,–,> 10
"COC(c1ccc(-n2cc(-c3ccnc4[nH]cnc34)cn2)nc1)(C1CCN(C)CC1)C(F)(F)F (stereo not drawn) [Example 1244, 7-(1-(5-(2,2,2-trifluoro-1-methoxy-1-(1-methylpiperidin-4-yl)ethyl)pyridin-2-yl)-1H-pyrazol-4-yl)-3H-imidazo[4,5-b]pyridine]",< 0.1,> 0.1,–,–,> 1,> 0.1,–,> 1
"O=C(NCC(F)(F)F)n1cc(-c2ccnc3[nH]cnc23)cn1 [Example 1064, N-(2,2,2-trifluoroethyl)-4-(3H-imidazo[4,5-b]pyridin-7-yl)-1H-pyrazole-1-carboxamide]",< 0.5,< 0.5,–,–,< 0.5,< 0.5,–,> 10
